Assay results taken from patent US20200148646A1, “6-S[…] 7-S[…] ANALOGS AND THE USE THEREOF” (Purdue Pharma, L.P., priority 2013, published 2020).

How the values were obtained:
Assay type in all cases: biochemical
μ-opioid receptor [1] = target: T1, μ-opioid receptor (Homo sapiens, UniProt P35372); test: μ-opioid receptor [35S]GTPγS functional assay, HEK-293 or CHO cells; details: for Emax: HEK-293 or CHO cells, relative to DAMGO
Description: (§1) [^35S]GTPγS functional assays were conducted using freshly thawed μ-receptor membranes prepared in-house from a cell line expressing recombinant opioid receptor in a HEK-293, CHO or U-2 OS cell background, or purchased from a commercial source (Perkin Elmer, Shelton, Conn.; or DiscovRx, Fremont, Calif.). Assay reactions were prepared by sequentially adding the following reagents to binding buffer (100 mM NaCl, 10 mM MgCl2, 20 mM HEPES, pH 7.4) on ice (final concentrations indicated): membrane protein (0.026 mg/mL), saponin ([…]), GDP ([…]) and [^35S]GTPγS (0.20 nM; Perkin Elmer, Shelton, Conn.). The prepared membrane solution (190 l/well) was transferred to 96-shallow well polypropylene plates containing 10 μl of 20× concentrated stock solutions of the agonist [D-Ala^2, N-methyl-Phe^4 Gly-ol^5]-enkephalin (DAMGO) prepared in dimethyl sulfoxide (DMSO). Plates were incubated for 30 min at about 25° C. with shaking. Reactions were terminated by rapid filtration onto 96-well Unifilter GF/B filter plates (Perkin Elmer, Shelton, Conn.) using a 96-well tissue harvester (Perkin Elmer, Shelton, Conn.) followed by three filtration washes with 200 μl of ice-cold wash buffer (10 mM NaH2PO4, 10 mM Na2HPO4, pH 7.4). Filter plates were subsequently dried at 50° C. for 2-3 hr. BetaScint scintillation cocktail (Perkin Elmer, Shelton, Conn.) was added (50 μl/well) and plates were counted using a Packard Top-Count for 1 min/well. Data were analyzed using the sigmoidal dose-response curve fitting functions in GraphPad PRISM v. 3.0, or an in-house function for non-linear, sigmoidal dose-response curve-fitting.
(§2) μ GTP EC50 is the concentration of a compound providing 50% of the maximal response for the compound at a μ-opioid receptor.
(§3) μ GTP Emax (%) is the maximal effect elicited by a compound relative to the effect elicited by DAMGO, a standard agonist. Generally, the μ GTP Emax (%) value measures the efficacy of a compound to treat or prevent pain or other Conditions.
In TABLE 2, activity response of certain Compounds of the Invention at the μ- and κ-opioid receptors using HEK-293 or CHO cells was determined as described above for functional assays.

μ-opioid receptor [2] = target: T1, μ-opioid receptor; test: μ-opioid receptor [35S]GTPγS functional assay, U-2 OS cells; set-up: host or cells: U-2 OS cells; details: for Emax: U2-OS cells, relative to DAMGO
Description: as §1, §2, §3
(§4) In TABLE 2A, activity response of certain Compounds of the Invention at the μ- and κ-opioid receptors using U-2 OS cells was determined as described above for functional assays.

human κ opioid receptor = human κ opioid receptor (Homo sapiens, UniProt P41145); test: κ-opioid receptor [35S]GTPγS functional assay, U-2 OS cells; set-up: expressed in transfected cells; host or cells: U-2 OS cells (in-house membranes); details: for Emax: U2-OS cells, relative to U69,593
Sequence of human κ opioid receptor (P41145 whole entry): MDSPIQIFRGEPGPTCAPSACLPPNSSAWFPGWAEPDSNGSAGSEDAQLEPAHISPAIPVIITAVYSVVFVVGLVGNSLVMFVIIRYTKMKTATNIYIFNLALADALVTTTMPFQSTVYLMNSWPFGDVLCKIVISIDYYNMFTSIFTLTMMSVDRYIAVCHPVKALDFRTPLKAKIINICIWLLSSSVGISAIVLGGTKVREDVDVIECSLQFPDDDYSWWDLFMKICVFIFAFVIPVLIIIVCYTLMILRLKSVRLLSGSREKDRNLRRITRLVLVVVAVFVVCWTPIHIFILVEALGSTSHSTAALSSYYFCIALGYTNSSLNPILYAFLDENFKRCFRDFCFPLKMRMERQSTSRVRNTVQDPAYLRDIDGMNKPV
Description: Membranes from recombinant HEK-293 cells, CHO or U-2 OS cells expressing the recombinant human K opioid receptor (K) were prepared by lysing cells in ice cold hypotonic buffer (2.5 mM MgCl2, 50 mM HEPES, pH 7.4) (10 mL/10 cm dish) followed by homogenization with a tissue grinder/Teflon pestle. Functional [^35S]GTPγS binding assays were conducted as follows. K opioid receptor membrane solution was prepared by sequentially adding final concentrations of 0.026 μg/μl κ membrane protein (in-house), 10 μg/mL saponin, 3 μM GDP and 0.20 nM [^35S]GTPγS to binding buffer (100 mM NaCl, 10 mM MgCl2, 20 mM HEPES, pH 7.4) on ice. The prepared membrane solution (190 μl/well) was transferred to 96-shallow well polypropylene plates containing 10 μl of 20× concentrated stock solutions of agonist prepared in DMSO. Plates were incubated for 30 min at a temperature of about 25° C. with shaking. Reactions were terminated by rapid filtration onto 96-well Unifilter GF/B filter plates (Perkin Elmer, Shelton, Conn.) using a 96-well tissue harvester (Packard) and followed by three filtration washes with 200 μl ice-cold binding buffer (10 mM NaH2PO4, 10 mM Na2HPO4, pH 7.4). Filter plates were subsequently dried at 50° C. for 2-3 hours. Fifty μl/well scintillation cocktail (Perkin Elmer, Shelton, Conn.) was added and plates were counted in a Packard Top-Count for 1 min/well.
κ GTP EC50 is the concentration of a compound providing 50% of the maximal response for the compound at a κ receptor.
κ GTP Emax (%) is the maximal effect elicited by a compound relative to the effect elicited by U69,593.
as §4

T1 sequence (P35372 whole entry, species assumed): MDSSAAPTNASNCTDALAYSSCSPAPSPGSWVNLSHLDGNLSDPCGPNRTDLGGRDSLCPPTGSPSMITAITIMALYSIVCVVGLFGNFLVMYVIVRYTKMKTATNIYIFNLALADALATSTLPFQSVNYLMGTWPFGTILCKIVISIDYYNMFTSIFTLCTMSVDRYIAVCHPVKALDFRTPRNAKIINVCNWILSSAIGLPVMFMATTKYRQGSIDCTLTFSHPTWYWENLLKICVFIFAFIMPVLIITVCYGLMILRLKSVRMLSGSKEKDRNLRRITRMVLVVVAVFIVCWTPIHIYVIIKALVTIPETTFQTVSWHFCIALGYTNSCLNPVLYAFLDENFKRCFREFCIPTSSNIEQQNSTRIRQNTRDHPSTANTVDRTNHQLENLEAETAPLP

Structure (SMILES) | EC50 (μ-opioid receptor [1]) | Emax (μ-opioid receptor [1]) | EC50 (μ-opioid receptor [2]) | Emax (μ-opioid receptor [2]) | EC50 (human κ opioid receptor) | Emax (human κ opioid receptor)
CC(C)CN[C@H]1CC[C@]23CCN(CC4CC4)[C@H](Cc4ccc(O)cc42)[C@]3(O)C1 [Compound 42, (4bS,7S,8aS,9R)-11-(cyclopropylmethyl)-7-(isobutylamino)-5,6,7,8,9,10-hexahydro-8aH-9,4b-(epiminoethano)phenanthrene-3,8a-diol] | 20.2 ± 7.83 nM | 16.6 ± 1.63% | 2.81 ± 0.16 nM | 67.3 ± 2.85% | 0.25 ± 0.029 nM | 110%
COc1ccc2c(c1)[C@@]13CC[C@H](NC(=O)C(C)C)C[C@@]1(O)[C@@H](C2)N(CC1CC1)CC3 [Compound 45, N-((4bS,7S,8aS,9R)-11-(cyclopropylmethyl)-8a-hydroxy-3-methoxy-6,7,8,8a,9,10-hexahydro-5H-9,4b-(epiminoethano)phenanthren-7-yl)isobutyramide] | 308 ± 122 nM | 15.3 ± 1.86% | 72 ± 15.9 nM | 71 ± 5.69% | 10.6 ± 2.1 nM | 106 ± 1%
CC(C)C(=O)N[C@H]1CC[C@]23CCN(CC4CC4)[C@H](Cc4ccc(O)cc42)[C@]3(O)C1 [Compound 46, N-((4bS,7S,8aS,9R)-11-(cyclopropylmethyl)-3,8a-dihydroxy-6,7,8,8a,9,10-hexahydro-5H-9,4b-(epiminoethano)phenanthren-7-yl)isobutyramide] | > 20000 nM | 7.67 ± 3.48% | 0.38 ± 0.11 nM | 54 ± 6.03% | 0.1 ± 0.021 nM | 102 ± 5.24%
CC(C)CCCC(=O)N[C@H]1C[C@@]2(O)[C@H]3Cc4ccc(O)cc4[C@@]2(CCN3CC2CC2)C[C@H]1O [Compound 62, N-((4bR,6R,7S,8aS,9R)-11-(cyclopropylmethyl)-3,6,8a-trihydroxy-6,7,8,8a,9,10-hexahydro-5H-9,4b-(epiminoethano)phenanthren-7-yl)-5-methylhexanamide] | 54.7 ± 4.52 nM | 23.3 ± 0.67% | 43.3 ± 5.6 nM | 60.3 ± 0.88% | 17.4 ± 1.46 nM | 90.2 ± 1.65%
O=C1C=C2[C@H]3Cc4ccc(O)cc4[C@]2(CC1)CCN3CC1CC1 [Compound 68, (4bS,9R)-11-(cyclopropylmethyl)-3-hydroxy-5,6,9,10-tetrahydro-7H-9,4b-(epiminoethano)phenanthren-7-one] | > 20000 nM | 6 ± 3% | 4.54 ± 1.28 nM | 31.3 ± 1.33% | 1.67 ± 0.099 nM | 104 ± 2.31%
COc1ccc2c(c1)[C@]13CCN(CC4CC4)[C@H](C2)[C@]12C[C@H](OCc1ccccc1)[C@H](C3)O2 [Compound 102, (4bR,6S,7S,8aS,9R)-7-(benzyloxy)-11-(cyclopropylmethyl)-3-methoxy-5,6,7,8,9,10-hexahydro-9,4b-(epiminoethano)-6,8a-epoxyphenanthrene] | 1520 ± 465 nM | 10.5 ± 1.26% | 470 ± 69.9 nM | 42 ± 1.73% | 1920 nM | 58.3 ± 0.67%
